Measurements reported in US20030065039A1, “Biologically active 1,3-bis-aromatic-prop-2-en-1-ones, 1,3-bis-aromatic-propan-1-ones, and 1,3-bis-aromatic-prop-2-yn-1-ones” (Statens Serum Institute, priority 1997, published 2003).
Marks after values point to notes of the source that are not given here.

Legend:
NDH (L. major) = experiment: Effect on L. major NADH dehydrogenase; type: biochemical, Leishmania major; conditions: incubation at 28° C.
From the text: FIG. 11. Effect of licochalcone A on Leishmania major NADH dehhydrogenase. […] Data are mean ±SEM from 6 different experiments.

SDH (L. major) = experiment: Effect on succinate dehydrogenase of L. major promastigotes; type: biochemical, Leishmania major
From the text: FIG. 10. Licochalocone A on SDH of L. major promastigotes (membrane rich fraction)

NCC (L. major) = experiment: Effect on L. major NADH-cytochrome c reductase; type: biochemical, Leishmania major; conditions: incubation at 28° C. for 5 min
Experimental: FIG. 13. Effect of licochalcone A on Leishmania major NADH-cycochrome c reductase. Membrane rich fraction of parasite was incubated with licochalcone A at 28° C. for 5 min, the remaining enzyme activity was measured. Data are mean ±SEM from 4 different experiments.

Peptostreptococcus = experiment: Effect on anaerobic bacteria (growth); type: cell-based; conditions: at a concentration of 5 μg/ml
[1] = test system: parasite mitochondrial dehydrogenase; experiment: Parasite mitochondrial dehydrogenase activity; type: biochemical, Leishmania major
[2] = Single dose toxicity in rats; type: in vivo
Experimental: (§1) Also in rats, LDlow po>1000 mg/kg was found. Studies carried out later in the project using the dosing schedule, also used to measure effects against the malaria parasites, confirmed the very good oral tolerance to all compounds tested.

SCC (L. major) = experiment: Effect on L. major succinate-cytochrome c reductase; type: biochemical, Leishmania major; conditions: incubation at 28° C. for 5 min
Experimental: FIG. 12. Effect of licochalcone A on Leishmania major succinate-cytochrome c reductase. Membrane rich fraction of parasite was incubated with licochalcone A at 28° C. for 5 min, the remaining enzyme activity was measured. Data are mean ±SEM from 4 different experiments.

NDH (human MNC) = experiment: Effect on human MNC NADH dehydrogenase; type: biochemical; conditions: incubation at 28° C. for 5 min
Experimental: FIG. 15. Effect of licochalcone A on human MNC NADH dehydrogenase. Membrane rich fraction of parasite was incubated with licochalcone A at 28° C. for 5 min, the remaining enzyme activity was measured. Data are mean ±SEM from 4 different experiments.

FRD (L. major) = experiment: Effect on fumarate reductase of L. major promastigotes; type: biochemical, Leishmania major; conditions: incubation at 28° C. for 5 min
Experimental: FIG. 5. Effect of licochalcone A on Leishmania major fumarate reductase. Digitonin treated promastigotes was incubated with licochalcone A at 28° C. 30 min, and the remaining enzyme activity was measured. Data are mean ±SEM from 6 different experiments.
FIG. 6. Effect of licochalcone A on Leishmania major fumarate reductase. KCL-solubilised fumarate reductase was incubated with licochalcone A at 28° C. 30 min, and the remaining enzyme activity was measured. Data are mean ±SEM from 6 different experiments.
Parasites were harvested by centrifugation at 1000 g for 10 min, and were washed 2 times in an isotonic phosphate saline buffer (50 mM sodium phosphate, pH 7.2, 90 mM NaCl, 5 mM KCl). […]
NADH-FRD activity was determined as the rate of NADH-oxidation upon addition of 1 mM fumarate in the KCl-solubilized fraction. The reaction was monitored spectrophotometrically at 340 nm ((=6.2 mM^−1 cm^−1) using 100 μM NADH and usually 0.1 mg protein in both reference and sample cuvettes. The measurement was carried out in a Shimadzu UV-190 double-beam spectrophotometer. Protein concentrations were determined using a Bio-Rad protein assay (Bio-Rad Laboratories, 200 Alfred Nobel Dr. Hercules, Calif. 94547, USA).
KCl solubilized fraction of Leishmania major promastigotes was incubated with different concentrations of various oxygenated chalcones at 28° C. and the remaining FRD activity was measured.

Leishmania major = experiment: Respiration of Leishmania major (O2 consumption, CO2 production); type: cell-based
[3] = Single dose toxicity in mice; type: in vivo
Experimental: as §1

Bacteroides fragilis = experiment: Effect on anaerobic bacteria (growth); type: cell-based; conditions: at a concentration of 5 μg/ml
Clostridium perfringes = experiment: Effect on anaerobic bacteria (growth); type: cell-based; conditions: at a concentration of 5 μg/ml
CHO cells = experiment: Chromosomal aberration assay with CHO cells; type: cell-based; conditions: both with and without metabolic activation (S9 mix)

Structure (SMILES) | IC50 (NDH (L. major)) | inhibition (SDH (L. major); at 250 μg/mg protein) | IC50 (SDH (L. major); incubation at 28° C. for 5 min) | IC50 (NCC (L. major)) | growth of Peptostreptococcus (Peptostreptococcus) | activity of the parasite mitochondrial dehydrogenase [1] | LDlow po [2] | IC50 (SCC (L. major)) | IC50 (NDH (human MNC)) | IC50 (FRD (L. major)) | respiration of the parasite (O2 consumption, CO2 production) (Leishmania major) | LDlow po [3] | growth of Bacteroides fragilis (Bacteroides fragilis) | growth of Clostridium perfringes (Clostridium perfringes) | chromosomal aberration assay with CHO cells (CHO cells)
C=CC(C)(C)c1cc(/C=C/C(=O)c2ccc(O)cc2)c(OC)cc1O [Licochalcone A] | 415.1 μg/mg protein | *29% inhibition at 250 μg/mg protein | >250* μg/mg protein | 387.5 μg/mg protein | completely inhibted | inhibited the activity of the parasite mitochondrial dehydrogenase | > 1000 mg/kg | 647.6 μg/mg protein | 454.2 μg/mg protein | 54.7 μg/mg protein | inhibited the respiration of the parasite in a concentration-dependent manner | > 1000 mg/kg | completely inhibted | completely inhibted | 
C=CCOc1ccc(C(=O)/C=C/c2cc(OC)cc(OC)c2)cc1 [SBC-35ma, 3,5-dimethoxy-4′-allyloxychalcone] |  |  |  |  |  |  |  |  |  |  |  |  |  |  | clear clastogenic response
